Biological target: T1, human GnRH receptor (Homo sapiens, UniProt P30968)
T1 construct: expressed in transfected cells; host or cells: HEK 293 (hGnRH-R/293, from Dr. Stuart Sealfon)
T1 sequence (P30968 1-328): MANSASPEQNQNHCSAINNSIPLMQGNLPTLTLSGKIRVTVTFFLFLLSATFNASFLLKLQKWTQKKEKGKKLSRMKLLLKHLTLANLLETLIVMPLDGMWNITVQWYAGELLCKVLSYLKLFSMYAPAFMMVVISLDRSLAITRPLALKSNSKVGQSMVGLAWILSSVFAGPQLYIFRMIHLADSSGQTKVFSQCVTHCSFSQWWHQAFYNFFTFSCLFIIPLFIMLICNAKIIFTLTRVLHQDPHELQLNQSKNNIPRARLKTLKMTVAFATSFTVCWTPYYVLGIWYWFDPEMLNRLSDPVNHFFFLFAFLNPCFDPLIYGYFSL
Test: Radioligand binding, 125I-GnRH-A displacement, membranes of HEK 293 cells with human GnRH receptor
Settings: read-out: hGnRH IC50
How it was run: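 Bound tracer was separated by filtration through polyethyleneimine-soaked GF/C filters and counted by liquid scintillation. IC50 from curve fitting; other species were tested under the same conditions.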

| IC50 [nM] | Compound |
| --- | --- |
| 3.2 | COc1cc(OC)c(NC(=O)c2ccc(Cc3cc4c(cc3C)C(C)(C)CC4(C)C)o2)c(OC)c1 [Compound 300] |
| 45 | COc1cc(NC(=O)c2ccc(Cc3cc4c(cc3C)C(C)(C)CCC4(C)C)o2)cc(OC)c1OC [Compound 301] |

Biological target: T2, mouse GnRH receptor (Mus musculus, UniProt Q01776)
T2 construct: expressed in transfected cells; host or cells: 293 cells
T2 sequence (Q01776 1-327): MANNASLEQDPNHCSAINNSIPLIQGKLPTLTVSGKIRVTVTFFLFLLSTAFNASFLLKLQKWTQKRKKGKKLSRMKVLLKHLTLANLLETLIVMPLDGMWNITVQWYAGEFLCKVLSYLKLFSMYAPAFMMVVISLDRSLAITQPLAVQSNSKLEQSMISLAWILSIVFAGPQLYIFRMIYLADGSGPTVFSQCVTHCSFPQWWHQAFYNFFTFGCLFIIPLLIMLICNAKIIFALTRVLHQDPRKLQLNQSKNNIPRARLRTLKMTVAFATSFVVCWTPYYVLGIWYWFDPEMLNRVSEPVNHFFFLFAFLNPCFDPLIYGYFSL
Test: Radioligand binding, 125I-GnRH-A, 293 cells expressing mouse GnRH receptors
Settings: 10 uM; read-out: % Inhib. @ 10 uM mGnRH
How it was run: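 Bound label captured on 0.1% polyethyleneimine-treated GF/C filters, washed three times with PBS, counted. IC50 derived; identical set-up for every species.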

| Compound | inhibition at 10 µM [%] |
| --- | --- |
| Cc1cc2c(cc1Cc1ccc(C(=O)N(Cc3ccccc3)C(C)C)o1)C(C)(C)CCC2(C)C [drawing 1541] | 84 |
| Cc1cc2c(cc1Cc1ccc(C(=O)N(Cc3ccccc3)[C@@H](C)c3ccccc3)o1)C(C)(C)CCC2(C)C [drawing 1542] | 46 |
| CCN(Cc1ccc(C)cc1)C(=O)c1ccc(Cc2cc3c(cc2C)C(C)(C)CCC3(C)C)o1 [drawing 1543] | 79 |
| Cc1cc2c(cc1Cc1ccc(C(=O)N3CCC(NC(=O)OC(C)(C)C)C3)o1)C(C)(C)CCC2(C)C (centres unmarked) [drawing 1544] | 82 |
| Cc1cc2c(cc1Cc1ccc(C(=O)N3CCCC3C)o1)C(C)(C)CCC2(C)C (centres unmarked) [drawing 1545] | 102 |
| CCC(CC)NC(=O)c1ccc(Cc2cc3c(cc2C)C(C)(C)CCC3(C)C)o1 [drawing 1546] | 76 |
| CCCC(CO)NC(=O)c1ccc(Cc2cc3c(cc2C)C(C)(C)CCC3(C)C)o1 (centres unmarked) [drawing 1547] | 99 |
| CCCCN(C)C(=O)c1ccc(Cc2cc3c(cc2C)C(C)(C)CCC3(C)C)o1 [drawing 1548] | 100 |
| COC(CN(C)C(=O)c1ccc(Cc2cc3c(cc2C)C(C)(C)CCC3(C)C)o1)OC [drawing 1549] | 90 |
| Cc1cc2c(cc1Cc1ccc(C(=O)NCCCCCCO)o1)C(C)(C)CCC2(C)C [drawing 1550] | 103 |
| Cc1cc2c(cc1Cc1ccc(C(=O)N(CCC(c3ccccc3)c3ccccc3)Cc3ccco3)o1)C(C)(C)CCC2(C)C [drawing 1552] | 43 |
| Cc1cc2c(cc1Cc1ccc(C(=O)N(CCC(c3ccccc3)c3ccccc3)Cc3ccccn3)o1)C(C)(C)CCC2(C)C [drawing 1554] | 50 |
| Cc1cc2c(cc1Cc1ccc(C(=O)N(CCc3ccccc3)Cc3ccoc3)o1)C(C)(C)CCC2(C)C [drawing 1557] | 61 |
| COc1ccccc1CN(C(=O)c1ccc(Cc2cc3c(cc2C)C(C)(C)CCC3(C)C)o1)C1CCN(Cc2ccccc2)C1 (centres unmarked) [drawing 1558] | 91 |
| Cc1cc2c(cc1Cc1ccc(C(=O)N(Cc3ccco3)C3CCN(Cc4ccccc4)C3)o1)C(C)(C)CCC2(C)C (centres unmarked) [drawing 1559] | 94 |
| Cc1cc2c(cc1Cc1ccc(C(=O)N(Cc3ccsc3)C3CCN(Cc4ccccc4)C3)o1)C(C)(C)CCC2(C)C (centres unmarked) [drawing 1560] | 91 |
| Cc1cc2c(cc1Cc1ccc(C(=O)N(Cc3ccoc3)C3CCN(Cc4ccccc4)C3)o1)C(C)(C)CCC2(C)C (centres unmarked) [drawing 1561] | 91 |
| Cc1cc2c(cc1Cc1ccc(C(=O)N(Cc3cccn3C)C3CCN(Cc4ccccc4)C3)o1)C(C)(C)CCC2(C)C (centres unmarked) [drawing 1562] | 98 |
| Cc1cc2c(cc1Cc1ccc(C(=O)N(Cc3cccc4ccccc34)C3CCN(Cc4ccccc4)C3)o1)C(C)(C)CCC2(C)C (centres unmarked) [drawing 1563] | 57 |
| Cc1cc2c(cc1Cc1ccc(C(=O)N(Cc3ccc(C(C)C)cc3)C3CCN(Cc4ccccc4)C3)o1)C(C)(C)CCC2(C)C (centres unmarked) [drawing 1564] | 48 |
| CCN1CC(N(Cc2ccccc2C#N)C(=O)c2ccc(Cc3cc4c(cc3C)C(C)(C)CCC4(C)C)o2)CN1CC [drawing 1565] | 101 |
| CCN1CC(N(Cc2ccc(N(C)C)cc2)C(=O)c2ccc(Cc3cc4c(cc3C)C(C)(C)CCC4(C)C)o2)CN1CC [drawing 1566] | 95 |
| CCN1CC(N(CCC(C)CCCC(C)(C)O)C(=O)c2ccc(Cc3cc4c(cc3C)C(C)(C)CCC4(C)C)o2)CN1CC (centres unmarked) [drawing 1567] | 104 |
| CCN1CC(N(CCC(C)c2ccccc2)C(=O)c2ccc(Cc3cc4c(cc3C)C(C)(C)CCC4(C)C)o2)CN1CC (centres unmarked) [drawing 1568] | 95 |

More lines, now with the values ahead:

| inhibition at 10 µM [%] | Compound |
| --- | --- |
| 42 | Cc1cc2c(cc1Cc1ccc(C(=O)NCc3cccc(NC(=O)NC(Cc4ccccc4)c4ccccc4)c3)o1)C(C)(C)CCC2(C)C (centres unmarked) [drawing 1570] |
| 47 | Cc1cc2c(cc1Cc1ccc(C(=O)NCc3cccc(CNC(=O)C(Cc4ccccc4)c4ccccc4)c3)o1)C(C)(C)CCC2(C)C (centres unmarked) [drawing 1571] |
| 93 | C=C(C)CNC(=O)c1ccc(Cc2cc3c(cc2C)C(C)(C)CCC3(C)C)o1 [drawing 1573] |
| 79 | Cc1cc2c(cc1Cc1ccc(C(=O)NCCc3ccc(F)cc3)o1)C(C)(C)CCC2(C)C [drawing 1574] |
| 65 | COc1cc(OC)cc(N2CCN(C(=O)c3ccc(Cc4cc5c(cc4C)C(C)(C)CCC5(C)C)o3)CC2)c1 [drawing 1576] |
| 66 | Cc1cc2c(cc1Cc1ccc(C(=O)NC(C)(C)CC(C)(C)C)o1)C(C)(C)CCC2(C)C [drawing 1577] |
| 60 | Cc1cc2c(cc1Cc1ccc(C(=O)N3CCC(NC(=O)C(F)(F)F)C3)o1)C(C)(C)CCC2(C)C (centres unmarked) [drawing 1578] |
| 105 | CSCCC(CO)NC(=O)c1ccc(Cc2cc3c(cc2C)C(C)(C)CCC3(C)C)o1 (centres unmarked) [drawing 1580] |
| 77 | CC[C@H](C)C(CO)NC(=O)c1ccc(Cc2cc3c(cc2C)C(C)(C)CCC3(C)C)o1 (some centres unmarked) [drawing 1581] |
| 52 | COc1cc2c(cc1OC)C(CC#N)N(C(=O)c1ccc(Cc3cc4c(cc3C)C(C)(C)CCC4(C)C)o1)CC2 (centres unmarked) [drawing 1582] |
| 96 | Cc1cc2c(cc1Cc1ccc(C(=O)N(C)CCC3OCCO3)o1)C(C)(C)CCC2(C)C [drawing 1583] |
| 92 | Cc1cc2c(cc1Cc1ccc(C(=O)NC(C)CN(C)C)o1)C(C)(C)CCC2(C)C (centres unmarked) [drawing 1584] |
| 90 | Cc1cc2c(cc1Cc1ccc(C(=O)NC(C)(C)CO)o1)C(C)(C)CCC2(C)C [drawing 1585] |
| 99 | CSCCCNC(=O)c1ccc(Cc2cc3c(cc2C)C(C)(C)CCC3(C)C)o1 [drawing 1586] |
| 97 | CSCCNC(=O)c1ccc(Cc2cc3c(cc2C)C(C)(C)CCC3(C)C)o1 [drawing 1587] |
| 99 | CCSCCNC(=O)c1ccc(Cc2cc3c(cc2C)C(C)(C)CCC3(C)C)o1 [drawing 1588] |
| 97 | COC(OC)C(C)NC(=O)c1ccc(Cc2cc3c(cc2C)C(C)(C)CCC3(C)C)o1 (centres unmarked) [drawing 1589] |
| 103 | CCCOCCNC(=O)c1ccc(Cc2cc3c(cc2C)C(C)(C)CCC3(C)C)o1 [drawing 1590] |
| 104 | Cc1cc2c(cc1Cc1ccc(C(=O)NCCC3OCCO3)o1)C(C)(C)CCC2(C)C [drawing 1591] |
| 99 | CCOC(=O)CCNC(=O)c1ccc(Cc2cc3c(cc2C)C(C)(C)CCC3(C)C)o1 [drawing 1592] |

Same assay, conditions: read-out: mGnRH IC50

| IC50 [nM] | Compound |
| --- | --- |
| 3.1 | COc1cc(OC)c(NC(=O)c2ccc(Cc3cc4c(cc3C)C(C)(C)CC4(C)C)o2)c(OC)c1 [Compound 300] |
| 38 | COc1cc(NC(=O)c2ccc(Cc3cc4c(cc3C)C(C)(C)CCC4(C)C)o2)cc(OC)c1OC [Compound 301] |

Test system: not listed separately
Test: Pharmacokinetic studies / bioavailability in rats
Type: in vivo, rat
Settings: female, rat, plasma, po, 10 mg/kg, rat female; p.o. 10 mg/kg; 5 mg/ml solution in 10% DMSO 10% cremophor 80% saline

| Cmax [nM] | Tmax [h] | Compound |
| --- | --- | --- |
| 360 | 1 | COc1cc(OC)c(NC(=O)c2ccc(Cc3cc4c(cc3C)C(C)(C)CC4(C)C)o2)c(OC)c1 [Compound 300] |

Same assay, conditions: female, rat, plasma, rat female

| half-life [h] | Compound |
| --- | --- |
| 2.1 | COc1cc(OC)c(NC(=O)c2ccc(Cc3cc4c(cc3C)C(C)(C)CC4(C)C)o2)c(OC)c1 [Compound 300] |

Same assay, conditions: rat female; 5 mg/ml solution in 10% DMSO 10% cremophor 80% saline

| Fp.o. | Compound |
| --- | --- |
| 10% (10 mg/kg)^10 | COc1cc(OC)c(NC(=O)c2ccc(Cc3cc4c(cc3C)C(C)(C)CC4(C)C)o2)c(OC)c1 [Compound 300] |

Biological target: T3, rat GnRH receptor (Rattus norvegicus, UniProt P30969)
T3 sequence (P30969 1-327): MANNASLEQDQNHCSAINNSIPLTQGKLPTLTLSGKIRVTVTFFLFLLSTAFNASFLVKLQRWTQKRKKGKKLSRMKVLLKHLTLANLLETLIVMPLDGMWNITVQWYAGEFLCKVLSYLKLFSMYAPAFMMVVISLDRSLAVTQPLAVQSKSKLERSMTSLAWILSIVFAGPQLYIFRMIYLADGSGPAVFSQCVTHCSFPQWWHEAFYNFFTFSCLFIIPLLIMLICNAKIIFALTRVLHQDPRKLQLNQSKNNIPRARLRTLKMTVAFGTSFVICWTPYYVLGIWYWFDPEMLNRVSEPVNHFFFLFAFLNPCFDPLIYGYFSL
Test: Radioligand binding, 125I-GnRH-A, rat pituitary membranes
Design: membranes were prepared from rat pituitary; from tissue; host or cells: rat pituitary
Settings: read-out: rGnRH IC50
Experimental: All compounds were diluted in 1% DMSO (final assay concentration) in binding assay buffer. […] Reactions were terminated by rapid filtration onto 96-well Packard GF/C filters soaked in 0.1% polyethyleneimine. Filters were washed three times with PBS buffer, dried and counted on a Packard Topcount by liquid scintillation counting.
Assay conditions were identical for assessing compound activities at other species. […] IC50 values for control peptides and test compounds were calculated utilizing GraphPad Prism™ software.
The reaction mixture was vortexed and incubated for 1 min at room temperature. After one min, the mixture was vortexed and allowed to incubate for an additional minute. 2 ml of 0.5 M acetic acid/1% BSA was added to the reaction tube and the mixture was added to a C18 Sep-Pak cartridge. The cartridge was washed with subsequent washes of 5 ml H2O and 5 ml 0.5M acetic acid and then eluted with 5×1 ml of 60% CH3CN/40% 0.5M acetic acid. The eluate was diluted with 3× volume of HPLC buffer A (0.1% TFA in H2O) and loaded onto a C18 column. […] The radioactive fractions (750 ed/fraction) are collected into clean polypropylene tubes containing 100 μl of 10% BSA. Fractions were assessed for biological activity by radioligand binding.

| IC50 [nM] | Compound |
| --- | --- |
| 1160 | Cc1cc2c(cc1Cc1ccc(C(=O)NCc3ccccc3-c3ccccc3)o1)C(C)(C)CCC2(C)C [Compound 67] |

— patent US7101878B1 (Agouron Pharmaceuticals, Inc., priority 1998, dated 2006)
